Data from ChEMBL document CHEMBL5120828, “Identification and optimisation of a pyrimidopyridone series of IRAK4 inhibitors” (Bioorg Med Chem, 2022).
Values after ≈ are worked out from the molar mass of the structure shown.

Columns and labels:
[1] = target: T1, Interleukin-1 receptor-associated kinase 4 (Homo sapiens, UniProt Q9NWZ3); test: Inhibition of human recombinant IRAK4 assessed as unphosphorylated KKARFSRFAGSSPSQSSMVAR peptide substrate measured after 2 hrs by LC-MS/MS analysis
T1 sequence (Q9NWZ3 whole entry): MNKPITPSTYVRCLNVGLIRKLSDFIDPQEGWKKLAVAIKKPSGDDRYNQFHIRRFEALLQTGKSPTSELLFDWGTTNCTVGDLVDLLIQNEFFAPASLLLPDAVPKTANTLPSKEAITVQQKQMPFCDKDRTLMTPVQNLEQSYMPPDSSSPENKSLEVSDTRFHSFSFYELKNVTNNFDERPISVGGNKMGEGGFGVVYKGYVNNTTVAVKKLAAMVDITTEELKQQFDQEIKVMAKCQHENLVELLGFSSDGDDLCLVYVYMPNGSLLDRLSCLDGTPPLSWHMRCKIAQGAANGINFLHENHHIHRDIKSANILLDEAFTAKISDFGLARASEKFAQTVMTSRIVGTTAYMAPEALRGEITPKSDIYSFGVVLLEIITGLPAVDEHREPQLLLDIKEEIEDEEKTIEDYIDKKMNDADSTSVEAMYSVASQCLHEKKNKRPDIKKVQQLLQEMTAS

[2] = Efflux ratio of permeability in human Caco-2 cells; type: ADME, cell-based
[3] = target: T1, Interleukin-1 receptor-associated kinase 4; test: Inhibition of IRAK4 in IL1-stimulated human KARPAS-299 cells assessed as fluorescence intensity; type: cell-based
[4] = Octanol/water partition coefficient, logP of compound at pH 7.4 by shake-flask method; type: physicochemical
[5] = Intrinsic permeability across apical to basolateral side in human Caco-2 cells; type: ADME, cell-based
[6] = Metabolic stability in human liver microsomes assessed as intrinsic clearance; type: ADME
[7] = target: Voltage-gated inwardly rectifying potassium channel KCNH2 (Homo sapiens, UniProt Q12809); test: Inhibition of human ERG channel; type: toxicity
[8] = Aqueous solubility of compound; type: physicochemical; conditions: buffer
[9] = Fraction unbound in human plasma; type: ADME, cell-free

Sequence of Voltage-gated inwardly rectifying potassium channel KCNH2 (Q12809 whole entry): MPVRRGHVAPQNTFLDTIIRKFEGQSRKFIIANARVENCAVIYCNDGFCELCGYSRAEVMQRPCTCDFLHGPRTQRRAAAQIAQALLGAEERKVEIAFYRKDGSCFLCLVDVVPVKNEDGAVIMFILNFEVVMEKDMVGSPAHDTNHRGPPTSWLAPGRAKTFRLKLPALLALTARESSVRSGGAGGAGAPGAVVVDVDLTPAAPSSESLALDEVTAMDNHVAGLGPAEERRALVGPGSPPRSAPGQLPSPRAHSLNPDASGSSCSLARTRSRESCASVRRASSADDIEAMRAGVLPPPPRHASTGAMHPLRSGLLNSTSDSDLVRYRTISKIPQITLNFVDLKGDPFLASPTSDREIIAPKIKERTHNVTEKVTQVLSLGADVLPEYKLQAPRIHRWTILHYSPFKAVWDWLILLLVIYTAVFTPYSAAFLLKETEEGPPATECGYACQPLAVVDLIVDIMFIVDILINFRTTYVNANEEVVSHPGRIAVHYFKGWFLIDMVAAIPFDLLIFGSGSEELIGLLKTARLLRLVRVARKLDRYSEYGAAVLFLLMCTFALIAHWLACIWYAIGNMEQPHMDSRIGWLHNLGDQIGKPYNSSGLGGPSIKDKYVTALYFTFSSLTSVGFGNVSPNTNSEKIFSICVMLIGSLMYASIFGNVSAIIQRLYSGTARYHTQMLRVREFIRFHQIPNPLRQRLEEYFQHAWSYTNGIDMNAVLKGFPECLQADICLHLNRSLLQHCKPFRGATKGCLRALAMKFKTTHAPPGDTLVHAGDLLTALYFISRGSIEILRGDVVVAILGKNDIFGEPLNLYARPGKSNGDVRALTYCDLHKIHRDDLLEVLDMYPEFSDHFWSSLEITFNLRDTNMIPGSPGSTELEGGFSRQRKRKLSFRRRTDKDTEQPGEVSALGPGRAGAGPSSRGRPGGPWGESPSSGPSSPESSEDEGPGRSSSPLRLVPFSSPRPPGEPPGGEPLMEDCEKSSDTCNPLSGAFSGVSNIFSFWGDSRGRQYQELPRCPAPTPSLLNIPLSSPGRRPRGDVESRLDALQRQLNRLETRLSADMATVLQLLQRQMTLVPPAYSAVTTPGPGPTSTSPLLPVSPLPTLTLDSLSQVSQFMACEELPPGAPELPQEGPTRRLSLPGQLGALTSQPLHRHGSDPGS

| Structure (SMILES) | IC50 [1] | efflux ratio [2] | IC50 [3] | logD [4] | Papp A→B [5] | CLint [6] | IC50 [7] | solubility [8] | fraction unbound [9] |
| --- | --- | --- | --- | --- | --- | --- | --- | --- | --- |
| COC(=O)N1CCN([C@H]2CC[C@H](Nc3nc(Nc4cnn(C)c4)nc4ccc(C)nc34)CC2)CC1 | 0.005 µM | 2.1 | 0.18 µM | 2.6 | 79 nm/s | 37 µL/min/mg | – | – | – |
| CN1C[C@H]2C[C@@H]1C[C@@H]2n1cc(Nc2nc(NC3(C)CC3)c3c(=O)n(C)ccc3n2)cn1 | 0.016 µM | – | 0.32 µM | 1.2 | – | 14 µL/min/mg | – | – | – |
| COC(=O)N1CCN([C@H]2CC[C@H](Nc3nc(Nc4cnn(C)c4)nc4ccn(C)c(=O)c34)CC2)CC1 | 0.005 µM | 3 | 0.15 µM | 2.4 | 170 nm/s | 22 µL/min/mg | – | – | – |
| CN1CCC(n2cc(Nc3nc(NC4(C)CC4)c4c(=O)n(C)ccc4n3)cn2)CC1 | 0.001 µM | 3.1 | 0.039 µM | 2.4 | 170 nm/s | 25 µL/min/mg | – | – | – |
| C[C@H](F)Cn1ccc2nc(Nc3cnn([C@H]4C[C@H]5C[C@@H]4CN5C)c3)nc(NC3(C)CC3)c2c1=O | 0.003 µM | – | 0.079 µM | 2 | – | 12 µL/min/mg | – | – | – |
| CN1CC2(CC(n3cc(Nc4nc(NC5(C)CC5)c5c(=O)n(CC(F)F)ccc5n4)cn3)C2)C1 | 0.004 µM | 7.1 | 0.09 µM | 2 | 120 nm/s | 9.6 µL/min/mg | – | – | – |
| CN1CC(n2cc(Nc3nc(NC4(C)CC4)c4c(=O)n(C)ccc4n3)cn2)CCC1=O (centres undefined) | 0.002 µM | – | 0.075 µM | 2.4 | – | 89 µL/min/mg | – | – | – |
| Cn1cc(Nc2nc(NC3(C)CC3)c3nc(CC#N)ccc3n2)cn1 | – | – | – | 2.7 | – | 82 µL/min/mg | – | – | – |
| Cn1cc(Nc2nc(NC3(C)CC3)c3c(=O)n(C)ccc3n2)cn1 | 0.008 µM | 0.75 | 0.19 µM | 2.9 | 670 nm/s | 13 µL/min/mg | – | – | – |
| COC(=O)N1CCN([C@H]2CC[C@H](Nc3nc(Nc4cnn(C)c4)nc4ccn(CC#N)c(=O)c34)CC2)CC1 | 0.023 µM | – | 0.44 µM | 2.3 | – | 25 µL/min/mg | – | – | – |
| CN1C[C@H]2C[C@@H]1C[C@@H]2n1cc(Nc2nc(NC3(C)CC3)c3c(=O)n(CC(F)F)ccc3n2)cn1 | 0.004 µM | – | 0.15 µM | 1.9 | – | 23 µL/min/mg | – | – | – |
| CN1CCC(n2cc(Nc3nc(NC4(C)CC4)c4c(=O)n(CC(F)F)ccc4n3)cn2)CC1 | 0.002 µM | – | 0.083 µM | 2.9 | – | 50 µL/min/mg | – | – | – |
| CN1C[C@@H]2C[C@H]1C[C@@H]2n1cc(Nc2nc(NC3(C)CC3)c3c(=O)n(C)ccc3n2)cn1 | 0.003 µM | – | 0.09 µM | 1.4 | – | 17 µL/min/mg | – | – | – |
| C[C@@H](CF)n1ccc2nc(Nc3cnn(C4CCN(C)CC4)c3)nc(NC3(C)CC3)c2c1=O | 0.004 µM | – | 0.15 µM | 3 | – | 51 µL/min/mg | – | – | – |
| CN1CCC(n2cc(Nc3nc(NC4(C)CC4)c4c(=O)n(C(F)F)ccc4n3)cn2)CC1 | 0.003 µM | – | 0.17 µM | 3.3 | – | 31 µL/min/mg | – | – | – |
| CN1CCC(n2cc(Nc3nc(NC4(C)CC4)c4c(=O)n(-c5cn(C)nn5)ccc4n3)cn2)CC1 | 0.006 µM | 2 | 0.18 µM | 2.5 | 210 nm/s | 49 µL/min/mg | – | – | – |
| C[C@H](F)Cn1ccc2nc(Nc3cnn(C4CCN(C)CC4)c3)nc(NC3(C)CC3)c2c1=O | 0.002 µM | – | 0.056 µM | 2.9 | – | 47 µL/min/mg | – | – | – |

| Structure (SMILES) | IC50 [1] | efflux ratio [2] | IC50 [3] | logD [4] | Papp A→B [5] | CLint [6] | IC50 [7] | solubility [8] | fraction unbound [9] |
| --- | --- | --- | --- | --- | --- | --- | --- | --- | --- |
| CN1CCC(n2cc(Nc3nc(NC4(C)CC4)c4c(=O)n(-c5cncnc5)ccc4n3)cn2)CC1 | 0.004 µM | 5 | 0.072 µM | 2.3 | – | 38 µL/min/mg | – | – | – |
| CN1CC2(CC(n3cc(Nc4nc(NC5(C)CC5)c5c(=O)n(C)ccc5n4)cn3)C2)C1 | 0.001 µM | 15 | 0.033 µM | 1.4 | 57 nm/s | 9.7 µL/min/mg | – | – | – |
| CN1CCC(n2cc(Nc3nc(NC4(C)CC4)c4c(=O)n(-c5cnn[nH]5)ccc4n3)cn2)CC1 | 0.001 µM | 28 | 0.069 µM | 2.5 | 33 nm/s | 20 µL/min/mg | – | – | – |
| C[C@H](CF)n1ccc2nc(Nc3cnn(C4CCN(C)CC4)c3)nc(NC3(C)CC3)c2c1=O | 0.005 µM | – | 0.17 µM | 2.8 | – | 47 µL/min/mg | – | – | – |
| CN1CCC(n2cc(Nc3nc(NC4(C)CC4)c4c(=O)n(C5CC5)ccc4n3)cn2)CC1 | 0.004 µM | – | 0.074 µM | 2.5 | – | 25 µL/min/mg | – | – | – |
| CN1CC2(CC(n3cc(Nc4nc(NC5(C)CC5)c5c(=O)n(-c6cn(C)nn6)ccc5n4)cn3)C2)C1 | 0.015 µM | – | 0.5 µM | 1.7 | – | < 3 µL/min/mg | – | – | – |
| C[C@@H](F)Cn1ccc2nc(Nc3cnn(C4CCN(C)CC4)c3)nc(NC3(C)CC3)c2c1=O | 0.021 µM | – | 0.11 µM | 2.9 | – | 41 µL/min/mg | – | – | – |
| CN(C)CC(=O)N1CCC(n2cc(Nc3nc(NC4(C)CC4)c4c(=O)n(C)ccc4n3)cn2)CC1 | 0.001 µM | 37 | 0.016 µM | 1.7 | 43 nm/s | 40 µL/min/mg | – | – | – |
| CN(C)C(=O)CN1CCC(n2cc(Nc3nc(NC4(C)CC4)c4c(=O)n(C)ccc4n3)cn2)CC1 | 0.0008 µM | 8.8 | 0.046 µM | 2.4 | 150 nm/s | 57 µL/min/mg | – | – | – |
| CC(C)n1ccc2nc(Nc3cnn(C4CCN(C)CC4)c3)nc(NC3(C)CC3)c2c1=O | 0.005 µM | – | 0.21 µM | 3.3 | – | 32 µL/min/mg | – | – | – |
| CC(=O)N1CCC(n2cc(Nc3nc(NC4(C)CC4)c4c(=O)n(C)ccc4n3)cn2)CC1 | 0.002 µM | 6 | 0.049 µM | 2.5 | 480 nm/s | 83 µL/min/mg | – | – | – |
| C[C@H](F)Cn1ccc2nc(Nc3cnn(C4CC5(C4)CN(C)C5)c3)nc(NC3(C)CC3)c2c1=O | 0.002 µM | 6.1 | 0.12 µM | 2.1 | 170 nm/s | 10 µL/min/mg | 4.2 µM | 890 µM (≈ 415 µg/mL) | 0.17 |
| CN1CCC(n2cc(Nc3nc(NC4(C)CC4)c4c(=O)n(-c5nnc[nH]5)ccc4n3)cn2)CC1 | 0.011 µM | 4.5 | 0.32 µM | 1.8 | 160 nm/s | 4.7 µL/min/mg | – | – | – |
| CN1CC[C@H](n2cc(Nc3nc(NC4(C)CC4)c4c(=O)n(C)ccc4n3)cn2)[C@H](F)C1 (racemic) | 0.0006 µM | – | 0.01 µM | 2.7 | – | 61 µL/min/mg | – | – | – |
| C[C@@H]1C[C@@H](n2cc(Nc3nc(NC4(C)CC4)c4c(=O)n(C)ccc4n3)cn2)CCN1C (racemic) | < 0.001 µM | – | 0.05 µM | 2.2 | – | 88 µL/min/mg | – | – | – |
| CN1CC[C@H](n2cc(Nc3nc(NC4(C)CC4)c4c(=O)n(C)ccc4n3)cn2)[C@@H](F)C1 (racemic) | 0.001 µM | – | 0.045 µM | 3.2 | – | 98 µL/min/mg | – | – | – |
| C[C@H]1C[C@@H](n2cc(Nc3nc(NC4(C)CC4)c4c(=O)n(C)ccc4n3)cn2)CCN1C (relative stereo) | 0.0006 µM | – | 0.018 µM | 2.7 | – | 31 µL/min/mg | – | – | – |
